Measurements from US20230312601A1, “THIAZOLO[5,4-B]PYRIDINE MALT-1 INHIBITORS” (AbbVie Inc., priority 2022, published 2023).

Tests used:
[1] = system: CYP 3A4 mRNA; assay: CYP3A4 Induction Assay (qPCR, human hepatocytes); format: in vitro ADME; conditions: 10 μM compound; for CYP3A4 % of positive control (%): relative to rifampicin 10 μM
Description: (§1) CYP induction by compounds of the Examples was evaluated in vitro by determining the expression levels of CYP 3A4 mRNA using the qPCR (quantitative polymerase chain reaction) assay. On day one, cryopreserved human hepatocytes were thawed in prewarmed (37° C.) thawing medium (cryopreserved hepatocyte recovery medium, Gibco™ CM 7000; Thermo Fisher Scientific), centrifuged (1000 g for 10 minutes) and resuspended in plating medium (Gibco™ CM3000—Williams Medium E supplemented with hepatocytes plating supplement pak-serum containing; Thermo Fisher Scientific). Cells were counted by trypan blue exclusion using a hemocytometer and adjusted to a cell density of […]. Thereafter, […] of cell suspension was aliquoted per well in a 96-well plate, resulting in 60,000 cells/well. Plates were shaken in the north-south and east-west direction during plating. Plated cells were incubated at 37° C/5% CO2 in a humidified cell culture incubator for 4-6 hours. During this time, incubation medium (Gibco™ CM4000, cell maintenance supplement pack; Thermo Fisher Scientific) was mixed with Gibco™ Geltrex™ (Thermo Fischer Scientific) at the appropriate GeltrexTM protein concentration. Following recovery, medium was removed from cells and replaced with freshly prepared incubation medium. Cells were incubated overnight in a cell culture incubator (37° C./5% CO2).
(§2) The next day the incubation medium was prepared by combining the hepatocyte maintenance supplement pack with Williams Medium E. The medium was warmed to 37° C. 1000× dimethyl sulfoxide compound stocks of the compounds of the Examples were prepared to the desired concentrations. 10 mM compound stocks in dimethyl sulfoxide were diluted (1 μL to 1 mL CM4000; final concentration=10 μM). Overlay medium was aspirated and […] dose solution added to the desired labeled 96 well plate. Cells were then dosed with compound (10 μM) and prototypical induces at the targeted concentrations either 50 i.tM for omeprazole (Sigma 0104/lotBCBF-2161V) or 10 i.tM for rifampicin (Sigma R3501/lot 011M1159V). A negative control, probenecid, was dosed at 10 i.tM (Sigma P8761/lot 013K0148).
(§3) On day 3, RNA isolation was performed. All surfaces were cleaned using RNase RNAy. Total RNA was isolated using MagMAX Express 96 RNA Isolation System (Life Technologies, AM1830). Briefly, hepatocytes were washed once with 1X PBS (phosphate buffered saline). 145 μL of RNA Lysis Buffer was added to each well and each well was mixed by pipetting several times. Lysate was then transferred to a well of a 96 well Binding Plate. Samples were then mixed with 20 μL magnetic beads coming from the kit. RNA bound to beads was then captured by the magnetic tip manifold and beads were washed with the wash solution. Samples were treated with TURBOTmDNase. After TURBOTmDNase treatment, RNA was rebound to beads and washed with the provided wash buffer an additional two times. Beads are then dried, and RNA was eluted with 50 μL elution buffer. The eluted mRNA was transferred from the wells to RNase-free sealable microtiter plates and stored at -80° C. until use.
(§4) Following mRNA isolation, reverse transcription (RT) reactions were performed using TaqmanTm Reverse Transcription Reagents (ThermoFisher Scientific). RT master mix was prepared by mixing 2.5 μL 10× RT buffer, 5.5 μL 25 mM MgCl2, 5μL deoxyNTP mixture, 1.25 50 mM random hexamers, 0.5 μL 2× RNAse inhibitor, 0.625 μL multiscript RTase (50U/μL) and 0.625 μL water. An aliquot of RT mix (16 μL) and an aliquot of mRNA sample (9 μL) was added to each well of a 96-well plate. The SimpliAmpTM Thermal cycler PCR System VIIA7 from Applied Biosystems was used for reverse transcription under the following conditions: segment 1: 25° C. for 10 minutes; segment 2: 45° C. for 45 minutes; segment 3: 95° C. for 5 minutes; and segment 4: 4° C. hold; with 1 cycle for each segment. […]

[2] = system: CYP3A4 mRNA; assay: CYP3A4 Induction Assay (qPCR, human hepatocytes); format: in vitro ADME; conditions: cryopreserved human hepatocytes (plated), 10 μM compound, mRNA fold over vehicle (0.1% DMSO)
Description: as §1, §2, §3, §4

[3] = system: OCI-LY3 IL6; assay: MALT-1 Cell IL-6 AlphaLISA Assay; format: cell-based; conditions: Homo sapiens; OCI-LY3 cells, 48 hours incubation; read-out: OCI-LY3 IL6 48 hour Inhibition EC50
Description: The following MALT-1 Cell Interleukin-6 (IL-6) AlphaLISA assay was conducted using a Perkin Elmer® IL-6 AlphaLISA® detection kit (PE AL223). The IL-6 detection assay is a homogeneous immunoassay that detects human IL-6 present in the cell culture medium in the MALT-1 dependent human ABC-DLBCL cell line, OCI-LY3. Compounds were pre-dispensed into Black 384w microtiter plates (Greiner, 781090) from 30 μM to 1.5 nM. Viable OCI-LY3 cells were then seeded on top of compounds at a seeding density of 50,000 cells/mL. Plates were then placed into 37° C. incubators for 48 hours. After 48 hours incubation, 2 μL of cell medium from each well was transferred into white ProxiPlates™ (PE 6008289). A fresh mix of AlphaLISA Acceptor beads (10 μg/mL) and Biotinylated IL-6 Antibody (1 nM) was made in AlphaLISA Immunoassay buffer and added to all wells (4 μL). The plates were incubated for 60 minutes at room temperature. Streptavidin donor beads (40 μg/mL) were prepared using the assay buffer and added to all wells (5 The plates were incubated for 30 minutes at room temperature and read using PE EnVision® reader. Results are shown in Table 3.

[4] = biological target: human MALT-1 protein (Homo sapiens (Human), UniProt Q9UDY8); assay: MALT-1 Biochemical Assay (Quench-FRET enzyme assay); conditions: human MALT-1 6 nM, substrate 2 μM, 40 min preincubation
Description: A Quenched Fluorescence Resonance Energy Transfer (Quench-FRET) enzyme assay was used to test the ability of exemplary MALT-1 inhibitors Example 1 to Example 39 to inhibit the cleavage of a MALT1 specific quenched fluorescent substrate of sequence [TAMRA-PEG2-Leu-Val-Ser-Arg-Gly-Ala-Ala-Ser-PEG2-K(QSY7) by human MALT-1 protein; where TAMRA is 6-carboxytetramethylrhodamine, PEG2 is 2-(2-(2-aminoethoxy)ethoxyamide linker, QSY7 is a non-fluorescent quenching dye (Thermo-Fisher catalog #Q10193). The assay was performed by pre-dispensing compounds into 384 well Proxiplates™ (PE 6008289). Human MALT-1 (6 nM) was prepared using the assay buffer (25 mM HEPES pH 7.5, 1 mM ethylenediaminetetraacetic acid, 0.8 M sodium citrate, 0.005% Bovine serum albumin (BSA), 2 mM dithiothreitol (DTT)) and added to the compound plates. The plates were incubated 40 minutes at room temperature. The reaction was carried out by adding the substrate (2 μM) to the plates and incubating for 60 minutes at room temperature. A fluorescence readout was then measured using a PE EnVision® reader (Ex.535/Em.590). […] EC50 is defined as the half maximal effective concentration of compound to inhibit MALT-1 protease activity.

[5] = system: male Sprague-Dawley rats; assay: Cardiovascular Assay in anesthetized rats; format: in vivo; conditions: rat; for HR (%) / MAP (%) / dP/dt@50 (%): change from vehicle; for Drug (μg/mL SEM): plasma at end of infusion
Description: The following cardiovascular assay was conducted using male Sprague-Dawley rats that were anesthetized with Inactin (thiobutabarbital), instrumented (catheterized both femoral artery and vein; catheterize left ventricular) and allowed to stabilize. Following a 30-minute baseline period, each compound was infused at low, medium, and high doses/30 minutes. Plasma samples were taken at the end of each dose infusion. If, at any point, the mean arterial pressure (MAP) of an animal decreased below 70 mmHg, the infusion was immediately stopped, a final blood sample was taken, and hemodynamic data for that animal was removed from the group average for all subsequent time points. A 15% change from vehicle for MAP or heart rate (HR), respectively, is considered biologically relevant. A 20% change from vehicle for dP/dt@50 is considered biologically relevant.

Sequence of human MALT-1 protein (Q9UDY8 whole entry): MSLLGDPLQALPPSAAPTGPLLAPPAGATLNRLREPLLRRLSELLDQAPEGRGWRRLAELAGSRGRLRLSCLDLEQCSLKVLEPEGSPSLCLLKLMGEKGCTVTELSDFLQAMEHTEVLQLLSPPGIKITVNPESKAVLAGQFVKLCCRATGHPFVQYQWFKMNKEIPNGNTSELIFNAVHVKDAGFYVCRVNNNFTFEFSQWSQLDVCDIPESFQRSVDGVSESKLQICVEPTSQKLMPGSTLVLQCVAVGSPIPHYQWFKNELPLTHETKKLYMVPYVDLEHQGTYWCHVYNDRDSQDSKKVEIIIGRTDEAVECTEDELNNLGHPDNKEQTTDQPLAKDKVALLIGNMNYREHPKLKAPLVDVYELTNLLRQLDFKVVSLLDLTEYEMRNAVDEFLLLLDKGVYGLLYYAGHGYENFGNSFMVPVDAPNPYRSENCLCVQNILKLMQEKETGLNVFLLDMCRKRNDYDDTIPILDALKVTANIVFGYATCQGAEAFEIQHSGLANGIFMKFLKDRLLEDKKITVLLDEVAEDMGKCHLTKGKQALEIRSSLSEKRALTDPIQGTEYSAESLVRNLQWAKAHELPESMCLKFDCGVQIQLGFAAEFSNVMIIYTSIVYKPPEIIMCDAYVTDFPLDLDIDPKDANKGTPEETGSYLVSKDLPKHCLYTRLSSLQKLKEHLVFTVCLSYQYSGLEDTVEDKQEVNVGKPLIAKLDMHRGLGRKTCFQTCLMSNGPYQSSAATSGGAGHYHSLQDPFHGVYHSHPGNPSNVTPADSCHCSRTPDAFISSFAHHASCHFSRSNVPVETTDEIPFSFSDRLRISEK

CYP3A4 % of positive control (%) [1] | fold induction at 1 day, 10 µM [2] | EC50 [3] | EC50 [4] | Compound | also measured
(84.8) % | 8.24 | 230 nM | 198 nM | CO[C@@H](C)c1c(Nc2ccc([C@H](N(C)C(=O)C3CCS(=O)(=O)CC3)C(F)(F)F)cc2F)cnc2sc(C)nc12 (single isomer, unassigned) [Example 10] | –
– | – | 580 nM | 92 nM | CO[C@H](c1c(Nc2ccc([C@H](N(C)C(=O)C3CCS(=O)(=O)CC3)C(F)(F)F)cc2F)cnc2sc(C)nc12)C(F)F (single isomer, unassigned) [Example 17] | –
(19.9) % | 2.72 | 190 nM | 156 nM | Cc1nc2c([C@@H](C)C(F)(F)F)c(Nc3ccc([C@H](N(C)C(=O)C4CCS(=O)(=O)CC4)C(F)(F)F)cc3)cnc2s1 (single isomer, unassigned) [Example 38] | –
(14.9) % | 2.29 | 40 nM | 83 nM | Cc1nc2c([C@H](C)C(F)(F)F)c(Nc3ccc([C@H](N(C)C(=O)C4CCS(=O)(=O)CC4)C(F)(F)F)cc3)cnc2s1 (single isomer, unassigned) [Example 39] | –
– | – | – | – | CO[C@@H](C)c1c(Nc2ccc([C@H](N(C)C(=O)C3CCS(=O)(=O)CC3)C(F)(F)F)cc2)cnc2cc(Cl)nn12 [Comparative Example A, N-{(1S)-1-[4-({2-chloro-7-[(1 S)-1-methoxyethyl]pyrazolo [1,5-a]pyrimidin-6-yl}amino)phenyl]-2,2,2-trifluoroethyl}-N-methyl-1,1-dioxo-1λ^6-thiane-4-carboxamide, reference compound] | HR (%) ([5]; dose 3 mg/kg): −7%; MAP (%) ([5]; dose 3 mg/kg): −10%; dP/dt@50 (%) ([5]; dose 3 mg/kg): −4%; HR (%) ([5]; dose 10 mg/kg): −11%; MAP (%) ([5]; dose 10 mg/kg): −14%; dP/dt@50 (%) ([5]; dose 10 mg/kg): −7%; HR (%) ([5]; dose 30 mg/kg): −18%; MAP (%) ([5]; dose 30 mg/kg): −22%; dP/dt@50 (%) ([5]; dose 30 mg/kg): −6%; Drug (μg/mL SEM) ([5]; dose 3 mg/kg): 1.45 ± 0.06 µg/mL; Drug (μg/mL SEM) ([5]; dose 10 mg/kg): 5.15 ± 0.32 µg/mL; Drug (μg/mL SEM) ([5]; dose 30 mg/kg): 12.91 ± 1.71 µg/mL
(25.3) % | – | – | – | CO[C@@H](C)c1c(NC(=O)Nc2cnc(-n3nccn3)c(C(F)(F)F)c2)cnc2sc(C)nc12 [Comparative Example B, reference compound] | CYP3A4 Fold induction ([1]; mRNA fold over vehicle (0.1% DMSO)): 2.32
(2.19) % | 1.13 | 110 nM | 190 nM | CO[C@H](c1c(Nc2ccc([C@H](N(C)C(=O)C3CCS(=O)(=O)CC3)C(F)(F)F)cc2)cnc2sc(C)nc12)C(F)(F)F [Example 2, N-methyl-1,1-dioxo-N-{(1S)-2,2,2-trifluoro-1-[4-({2-methyl-7-[(1R)-2,2,2-trifluoro-1-methoxyethyl][1,3]thiazolo[5,4-b]pyridin-6-yl}amino)phenyl]ethyl}-1λ^6-thiane-4-carboxamide] | –
(16.1) % | 1.98 | 1330 nM | 158 nM | CO[C@@H](C)c1c(Nc2ccc([C@@H](C(F)F)N(C)C(=O)C3CCS(=O)(=O)CC3)cc2)cnc2sc(C)nc12 [Example 4, N-{(1S)-2,2-difluoro-1-[4-({7-[(1S)-1-methoxyethyl]-2-methyl[1,3]thiazolo[5,4-b]pyridin-6-y1}amino)phenyl]ethyl} -N-methyl-1,1-dioxo-1λ^6-thiane-4-carboxamide] | –
(15.3) % | 1.77 | 340 nM | 77 nM | CO[C@@H](c1c(Nc2ccc([C@H](N(C)C(=O)C3CCS(=O)(=O)CC3)C(F)(F)F)cc2)cnc2sc(C)nc12)C(F)F [Example 5, N-{(1S)-1-[4-({7-[(1S)-2,2-difluoro-l-methoxyethyl]-2-methyl[1,3]thiazolo [5,4-b]pyridin-6-yl}amino)phenyl]-2,2,2-trifluoroethyl}-N-methyl-1,1-dioxo-1λ^6-thiane-4-carboxamide] | –
(5.46) % | 1.4 | 210 nM | 146 nM | CO[C@H](c1c(Nc2ccc([C@@H](C(F)F)N(C)C(=O)C3CCS(=O)(=O)CC3)cc2)cnc2sc(C)nc12)C(F)F [Example 6, N-{(1S)-1-[4-({7-[(1R)-2,2-difluoro-l-methoxyethyl]-2-methyl[1,3]thiazolo[5,4-b]pyridin-6-y1}amino)phenyl]-2,2-difluoroethyl}-N-methyl-1,1-dioxo-1λ^6-thiane-4-carboxamide] | –
– | – | 470 nM | 106 nM | Cc1nc2c(C(C)C(F)F)c(Nc3ccc([C@H](N(C)C(=O)C4CCS(=O)(=O)CC4)C(F)(F)F)cc3)cnc2s1 (stereo partly drawn) [Example 16, N-R[(1S)-1-(4-{ [7-(1,1-difluoropropan-2-yl)-2-methyl[1,3]thiazolo[5,4-b]pyridin-6-yl]amino}phenyl)-2,2,2-trifluoroethyl]-N-methyl-1,1-dioxo-1λ^6-thiane-4-carboxamide] | –
